The values that follow come from PubChem BioAssay (NCI).

Among the test systems are OVCAR-3 ovarian; NCI-H226 lung; 786-0 renal; HCT-116 colon; HCT-15 colon; HOP-92 NSCLC; IGROV1 ovarian; SN12C renal.
What all share (assay): DTP human tumour cell line panel, 48 h

Each structure is given as a SMILES string. Values joined by “and” are separate entries in the source; they are usually repeats but may differ in a detail not shown here. Equal entries are not always repeated.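 Following 48 hours of exposure in 96-well plates, responses at five concentrations were used to interpolate endpoints linearly. GI50: concentration for 50% inhibition of growth. TGI is the concentration that stops growth completely.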

For `COc1cc2c(c(OC)c1OC)-c1ccc(SC)c(=O)cc1[C@@H](NCc1cccc(C#N)c1)CC2`, the TGI in the experiment with OVCAR-3 ovarian is 0.0493 µM; with NCI-H226 lung, 0.0545 µM and < 0.0075 µM; in the experiment with 786-0 renal, 20.9 µM; in the experiment on HOP-92 NSCLC, > 75 µM; in the experiment on IGROV1 ovarian, > 75 µM; in the experiment with SN12C renal, 66.1 µM. The GI50 in the experiment with NCI-H226 lung, in the experiment on 786-0 renal, in the experiment with HCT-116 colon, in the experiment on HCT-15 colon, with HOP-92 NSCLC and with IGROV1 ovarian was < 0.0075 µM each time. The GI50 in the experiment on SN12C renal was < 0.0075 µM.

With `NCCCC1NC(=O)/C(=C(O)/C=C/C2CCC[C@@H]2CC2SCCS2)C1=O` (stereo not given in full), the concentration for total growth inhibition (TGI) was > 100 µM in the experiment with OVCAR-3 ovarian; > 100 µM in the experiment on NCI-H226 lung; > 100 µM with 786-0 renal; > 100 µM in the experiment on HCT-116 colon; 99.8 µM in the experiment on HOP-92 NSCLC; > 100 µM with IGROV1 ovarian. Moreover, the TGI in the experiment on SN12C renal was > 100 µM.

As to `Cc1ccccc1NC(=O)C1C(=O)N(c2ccccc2C)C(=O)/C1=N\N` (stereo not given), the TGI in the experiment on OVCAR-3 ovarian, in the experiment with NCI-H226 lung, in the experiment on 786-0 renal, with HCT-116 colon, with HCT-15 colon and in the experiment on HOP-92 NSCLC was > 100 µM in each case. Besides, the concentration for total growth inhibition (TGI) in the experiment on IGROV1 ovarian and with SN12C renal was > 100 µM each time.

Turning to `Cc1c(C(=O)/C=C/c2ccccc2Cl)[n+](=O)c2ccccc2n1[O-]`, the total growth inhibition concentration (TGI) with OVCAR-3 ovarian came out at 29.4 µM; in the experiment with NCI-H226 lung, 28.8 µM; in the experiment on 786-0 renal it was 25.3 µM; with HCT-116 colon it was 22.5 µM; with HCT-15 colon, 21.7 µM; in the experiment on HOP-92 NSCLC, 28.7 µM. The TGI in the experiment on IGROV1 ovarian was 31.6 µM; in the experiment with SN12C renal it was 28.4 µM.

For the molecule `CCOC(=O)N1N=NC2C3OC(C[C@@]3(C#N)OC(C)=O)[C@H]21` (stereo not given in full), the concentration for total growth inhibition (TGI) in the experiment with OVCAR-3 ovarian, with NCI-H226 lung, in the experiment with 786-0 renal, in the experiment on HCT-116 colon, in the experiment with HCT-15 colon and with HOP-92 NSCLC was > 100 µM in each case. The TGI in the experiment on IGROV1 ovarian and in the experiment with SN12C renal was > 100 µM each time.

`Nc1ccc2c(c1)CC1c3ccccc3C(C2)c2ccccc21`: the TGI in the experiment on 786-0 renal, with HCT-116 colon, with HCT-15 colon, in the experiment on HOP-92 NSCLC, in the experiment with IGROV1 ovarian and in the experiment on SN12C renal was > 100 µM throughout.

`CC(=O)Nc1ccccc1-c1cnc2ccccc2n1`: the TGI in the experiment with OVCAR-3 ovarian, in the experiment on NCI-H226 lung, with 786-0 renal, in the experiment with HCT-116 colon, in the experiment on HCT-15 colon and in the experiment on HOP-92 NSCLC was > 100 µM each time. For the same molecule, the total growth inhibition concentration (TGI) in the experiment on IGROV1 ovarian and in the experiment on SN12C renal was > 100 µM throughout.

For the molecule `CC(=O)C1C(=O)C(=O)N(c2ccccc2N2C(=O)C(=O)C(C(C)=O)C2=O)C1=O` (stereo not given), the TGI in the experiment with OVCAR-3 ovarian, in the experiment on NCI-H226 lung, in the experiment with 786-0 renal, in the experiment with HCT-116 colon, in the experiment on HCT-15 colon and in the experiment on HOP-92 NSCLC was > 100 µM in each case. The TGI with IGROV1 ovarian and in the experiment with SN12C renal was > 100 µM each time.

On to `COc1c(NC(=O)CC(C)=O)[c]([Hg][O]C(C)=O)c(OC)c(Cl)[c]1[Hg][O]C(C)=O`, for which the GI50 in the experiment on OVCAR-3 ovarian was 13.3 µM; in the experiment on NCI-H226 lung it was 17.7 µM; with 786-0 renal it was 6.47 µM; in the experiment on HCT-116 colon, 15.2 µM; in the experiment with HCT-15 colon it was 14 µM; in the experiment with HOP-92 NSCLC, 4.13 µM. Further, the GI50 in the experiment with IGROV1 ovarian is 11.7 µM; with SN12C renal, 15.4 µM. The TGI was determined as 26 µM in the experiment with OVCAR-3 ovarian; 33.9 µM in the experiment on NCI-H226 lung; 18.8 µM in the experiment on 786-0 renal; 31.8 µM in the experiment on HCT-116 colon; 28.8 µM in the experiment on HCT-15 colon; 11.6 µM in the experiment on HOP-92 NSCLC. Further, the total growth inhibition concentration (TGI) was 28.3 µM in the experiment with IGROV1 ovarian and 29.8 µM with SN12C renal.

Turning to `Cc1ccccc1-c1c(N)nc(N)nc1C(=O)Nc1nccs1`, the TGI with OVCAR-3 ovarian, with NCI-H226 lung, in the experiment with 786-0 renal, in the experiment on HCT-116 colon, in the experiment on HCT-15 colon and in the experiment with HOP-92 NSCLC was > 100 µM throughout. The total growth inhibition concentration (TGI) in the experiment on IGROV1 ovarian and in the experiment with SN12C renal was > 100 µM each time.

Regarding `CCCCCCCCCC1C(C)c2c([nH]c3ccccc23)C2C(=O)N(c3ccccc3)C(=O)C21` (stereo not given), the TGI was 10.8 µM with OVCAR-3 ovarian; 24.9 µM in the experiment with NCI-H226 lung; 25.1 µM with 786-0 renal; 10.2 µM in the experiment on HCT-116 colon; 23 µM in the experiment on HCT-15 colon; 35.3 µM in the experiment on IGROV1 ovarian.

`Cc1ccc(NC(=O)CC/C(CC(=O)c2ccc(F)cc2)=N\NC(=O)C(=O)NN)cc1C`: the total growth inhibition concentration (TGI) in the experiment with OVCAR-3 ovarian, in the experiment with NCI-H226 lung, in the experiment with 786-0 renal, in the experiment on HCT-116 colon, in the experiment with HCT-15 colon and in the experiment on HOP-92 NSCLC was > 100 µM throughout. The TGI in the experiment with IGROV1 ovarian and with SN12C renal was > 100 µM throughout.

Consider `CCC1(C(=O)OC)CCc2c(OC)ccc(OC)c2C1=O` (stereo not given), for which the TGI in the experiment with OVCAR-3 ovarian, with 786-0 renal, in the experiment on HCT-116 colon, in the experiment on HCT-15 colon, with IGROV1 ovarian and with SN12C renal was > 100 µM throughout.

On to `CN(C)CC/C(=N\Nc1ccc(Cl)c(Cl)c1)c1ccccc1`, for which the TGI in the experiment with OVCAR-3 ovarian was 6.45 µM; with 786-0 renal it was 3.37 µM; with HCT-116 colon, 3.19 µM; in the experiment with HCT-15 colon it was 4.18 µM; in the experiment with IGROV1 ovarian, 5.68 µM; in the experiment with SN12C renal, 5.26 µM.

Consider `O=C1[C@@H]2C3SC(c4ccccc43)[C@@H]2C(=O)N1c1ccccc1`, for which the total growth inhibition concentration (TGI) with OVCAR-3 ovarian, in the experiment on NCI-H226 lung, with 786-0 renal, in the experiment with HCT-116 colon, in the experiment on HCT-15 colon and in the experiment on HOP-92 NSCLC was > 100 µM throughout. Moreover, the concentration for total growth inhibition (TGI) in the experiment with IGROV1 ovarian and in the experiment with SN12C renal was > 100 µM each time.

Turning to `NC(=S)NNC(=O)CCC(=O)Nc1ccc(Cl)cc1Cl`, the TGI in the experiment with OVCAR-3 ovarian, in the experiment with NCI-H226 lung, with 786-0 renal, with HCT-116 colon, in the experiment with HCT-15 colon and in the experiment with HOP-92 NSCLC was > 100 µM throughout. Also, the concentration for total growth inhibition (TGI) with IGROV1 ovarian and in the experiment with SN12C renal was > 100 µM in each case.

Regarding `CCC[CH2][Ge]([CH2]CCC)([CH2]CCC)[O]C(=O)C(OC)c1ccccc1` (stereo not given), the GI50 is 11.1 µM with OVCAR-3 ovarian; 92.7 µM with NCI-H226 lung; 47.2 µM in the experiment on 786-0 renal; 16.5 µM in the experiment on HCT-116 colon; 9.52 µM in the experiment on HCT-15 colon; 9.53 µM with HOP-92 NSCLC. Also, the GI50 in the experiment with IGROV1 ovarian was > 74.7 µM; in the experiment with SN12C renal it was 46.4 µM. For the same molecule, the total growth inhibition concentration (TGI) was > 70.2 µM in the experiment on OVCAR-3 ovarian; > 100 µM in the experiment with NCI-H226 lung; > 100 µM in the experiment with 786-0 renal; > 100 µM with HCT-116 colon; 32.4 µM in the experiment on HCT-15 colon; 98.3 µM with HOP-92 NSCLC. Besides, the TGI in the experiment on IGROV1 ovarian and in the experiment on SN12C renal was > 100 µM throughout.

Turning to `CCOC(=O)C(Cc1ccccc1)NC(=O)OC(C)(C)C` (stereo not given), the TGI with OVCAR-3 ovarian, with 786-0 renal, with HCT-116 colon, in the experiment on HCT-15 colon, with HOP-92 NSCLC and in the experiment on IGROV1 ovarian was > 100 µM each time. Further, in the experiment with SN12C renal, the TGI is > 100 µM.

Consider `CC(C)(C)OC(=O)NC1CCC[C@H]1O` (stereo not given in full), for which the TGI in the experiment on OVCAR-3 ovarian, with NCI-H226 lung, with 786-0 renal, in the experiment with HCT-116 colon, with HOP-92 NSCLC and with SN12C renal was > 100 µM each time.

For `O=C(O)CCCCCO`, the TGI in the experiment with OVCAR-3 ovarian, in the experiment with NCI-H226 lung, in the experiment on 786-0 renal, in the experiment on HCT-116 colon, with HCT-15 colon and in the experiment with HOP-92 NSCLC was > 100 µM throughout. Moreover, the TGI with IGROV1 ovarian and in the experiment with SN12C renal was > 100 µM each time.

Regarding `Nc1nc(N)c(N=O)c(Nc2ccc(I)cc2)n1`, the total growth inhibition concentration (TGI) was 43.7 µM in the experiment on OVCAR-3 ovarian; > 100 µM in the experiment on 786-0 renal; 43.5 µM in the experiment with HCT-116 colon; 96.7 µM in the experiment on HCT-15 colon; 25.8 µM in the experiment with IGROV1 ovarian; 49.2 µM in the experiment with SN12C renal.

Take `O=C(/C=C/c1ccccc1O)c1cccnc1`: the total growth inhibition concentration (TGI) in the experiment on OVCAR-3 ovarian, with NCI-H226 lung, with 786-0 renal, in the experiment with HCT-116 colon, in the experiment on IGROV1 ovarian and in the experiment on SN12C renal was > 100 µM throughout.

`Nc1ncnc2c(C3OC(CO)C(O)C3O)scc12` (stereo not given): the TGI in the experiment on OVCAR-3 ovarian was 0.0287 µM; with NCI-H226 lung it was 0.731 µM; with 786-0 renal, 4.5 µM and 3.08 µM; in the experiment with HCT-116 colon, 1.12 µM and 2.72 µM; in the experiment with HCT-15 colon, 0.584 µM and 0.14 µM; in the experiment with HOP-92 NSCLC, 0.529 µM. The concentration for total growth inhibition (TGI) in the experiment with IGROV1 ovarian was 3.3 µM; with SN12C renal it was 4.93 µM and 4.07 µM. Further, the GI50 with 786-0 renal was 0.168 µM; in the experiment on IGROV1 ovarian, 0.0179 µM; in the experiment on SN12C renal, 0.105 µM.

For the molecule `CC(=O)OC1C/C(C)=C/CCC(C)/C=C/C2(C)CCC(C(C)(C)O)C12` (stereo not given), the TGI in the experiment with OVCAR-3 ovarian is > 100 µM; in the experiment with NCI-H226 lung, > 100 µM; with 786-0 renal, > 100 µM; in the experiment with HCT-116 colon, 77.1 µM; in the experiment on HCT-15 colon it was > 100 µM; in the experiment with HOP-92 NSCLC it was 51.4 µM. Further, the concentration for total growth inhibition (TGI) with IGROV1 ovarian is > 100 µM; in the experiment with SN12C renal, 96.4 µM.
